# Laboratory results from US20230398130A1, “METHODS AND COMPOSITIONS FOR DIFFERENTIATING STEM CELLS” (Massachusetts Institute of Technology, priority 2020, published 2023).
# Assays:
# ISC-enriched organoids [1] = experiment: Primary screen, 384-well 2.5-D organoid differentiation (ENR+CD, 6 days): basal lysozyme secretion (LYZ.NS); assay type: cell-based, murine; settings: primary screen; for Dose.FC.LYZ.NS: FC vs plate median; for SSMD.LYZ.NS: strictly standardized mean difference
# Text: (§1) High-throughput screening.
# ISC-enriched organoids [2] = experiment: Primary screen, 384-well 2.5-D organoid differentiation (ENR+CD, 6 days, Target Selective Inhibitor Library, vs whole-plate median): ATP (CellTiter-Glo 3D, CTG); settings: primary screen; for Dose.FC.CTG: FC vs plate median; for SSMD.CTG: strictly standardized mean difference
# ISC-enriched organoids [3] = experiment: Primary screen, 384-well 2.5-D organoid differentiation (ENR+CD, 6 days): carbachol-induced lysozyme secretion (LYZ.S); assay type: cell-based, murine; settings: primary screen; for Dose.FC.LYZ.S: FC vs plate median; for Z.LYZ.S: standard z score; for SSMD.LYZ.S: strictly standardized mean difference
# Text: as §1
# [4] = dose 0.08 uM, standard z score of FC
# [5] = dose 0.40 uM, standard z score of FC
# [6] = dose 2.00 uM, standard z score of FC
# [7] = dose 10.00 uM, standard z score of FC
# [8] = Dose 10.00 uM, standard z score
# [9] = 1st of the 4 dose lines of the treatment (dose not given)
# [10] = 2nd of the 4 dose lines of the treatment (dose not given)
# [11] = 3rd of the 4 dose lines of the treatment (dose not given)
# [12] = 4th of the 4 dose lines of the treatment (dose not given)
smiles,measurement,setting,value
CN(C)Cc1ccc(-c2nc3cccc4c3n2CCNC4=O)cc1 [AG-14361],Dose.FC.LYZ.NS,"ISC-enriched organoids [1]; dose 0.08 uM, ENR+CD 6 days",0.152 log 2 fold change
same,Z.LYZ.NS,ISC-enriched organoids [1]; [4],1.324
same,Dose.FC.LYZ.NS,"ISC-enriched organoids [1]; dose 0.40 uM, ENR+CD 6 days",0.036 log 2 fold change
same,Z.LYZ.NS,ISC-enriched organoids [1]; [5],0.312
same,Dose.FC.LYZ.NS,"ISC-enriched organoids [1]; dose 2.00 uM, ENR+CD 6 days",0.032 log 2 fold change
same,Z.LYZ.NS,ISC-enriched organoids [1]; [6],0.278
same,Dose.FC.LYZ.NS,"ISC-enriched organoids [1]; dose 10.00 uM, ENR+CD 6 days",−0.197 log 2 fold change
same,Z.LYZ.NS,ISC-enriched organoids [1]; [7],−1.713
same,Dose.FC.CTG,"ISC-enriched organoids [2]; dose 0.08 uM, ENR+CD 6 days",−0.012 log 2 fold change
same,Z.CTG,ISC-enriched organoids [2]; [4],−0.028
same,Dose.FC.CTG,"ISC-enriched organoids [2]; dose 0.40 uM, ENR+CD 6 days",−0.069 log 2 fold change
same,Z.CTG,ISC-enriched organoids [2]; [5],−0.165
same,Dose.FC.CTG,"ISC-enriched organoids [2]; dose 2.00 uM, ENR+CD 6 days",0.005 log 2 fold change
same,Z.CTG,ISC-enriched organoids [2]; [6],0.012
same,Dose.FC.CTG,"ISC-enriched organoids [2]; dose 10.00 uM, ENR+CD 6 days",−0.021 log 2 fold change
same,Z.CTG,ISC-enriched organoids [2]; [7],−0.050
same,Dose.FC.LYZ.S,"ISC-enriched organoids [3]; dose 0.08 uM, ENR+CD 6 days",0.100 log 2 fold change
same,Dose.FC.LYZ.S,"ISC-enriched organoids [3]; dose 0.40 uM, ENR+CD 6 days",−0.001 log 2 fold change
same,Dose.FC.LYZ.S,"ISC-enriched organoids [3]; dose 2.00 uM, ENR+CD 6 days",−0.065 log 2 fold change
same,Dose.FC.LYZ.S,"ISC-enriched organoids [3]; dose 10.00 uM, ENR+CD 6 days",−0.189 log 2 fold change
O=C(O)CCc1ccc(NCc2cccc(Oc3ccccc3)c2)cc1 [GW9508],Dose.FC.LYZ.NS,ISC-enriched organoids [1]; Dose 0.08 uM,0.075 log 2 fold change
same,Z.LYZ.NS,"ISC-enriched organoids [1]; Dose 0.08 uM, standard z score",0.650
same,Dose.FC.LYZ.NS,ISC-enriched organoids [1]; Dose 0.40 uM,0.019 log 2 fold change
same,Z.LYZ.NS,"ISC-enriched organoids [1]; Dose 0.40 uM, standard z score",0.169
same,Dose.FC.LYZ.NS,ISC-enriched organoids [1]; Dose 2.00 uM,−0.011 log 2 fold change
same,Z.LYZ.NS,"ISC-enriched organoids [1]; Dose 2.00 uM, standard z score",−0.092
same,Dose.FC.LYZ.NS,ISC-enriched organoids [1]; Dose 10.00 uM,−0.040 log 2 fold change
same,Z.LYZ.NS,ISC-enriched organoids [1]; [8],−0.350
same,SSMD.LYZ.NS,ISC-enriched organoids [1]; [9],0.536
same,SSMD.LYZ.NS,ISC-enriched organoids [1]; [10],0.122
same,SSMD.LYZ.NS,ISC-enriched organoids [1]; [11],−0.064
same,SSMD.LYZ.NS,ISC-enriched organoids [1]; [12],−0.358
same,Dose.FC.CTG,ISC-enriched organoids [2]; Dose 0.08 uM,0.063 log 2 fold change
same,Z.CTG,"ISC-enriched organoids [2]; Dose 0.08 uM, standard z score",0.151
same,Dose.FC.CTG,ISC-enriched organoids [2]; Dose 0.40 uM,0.174 log 2 fold change
same,Z.CTG,"ISC-enriched organoids [2]; Dose 0.40 uM, standard z score",0.417
same,Dose.FC.CTG,ISC-enriched organoids [2]; Dose 2.00 uM,−0.001 log 2 fold change
same,Z.CTG,"ISC-enriched organoids [2]; Dose 2.00 uM, standard z score",−0.003
same,Dose.FC.CTG,ISC-enriched organoids [2]; Dose 10.00 uM,−0.059 log 2 fold change
same,Z.CTG,ISC-enriched organoids [2]; [8],−0.140
same,SSMD.CTG,ISC-enriched organoids [2]; [9],0.128
same,SSMD.CTG,ISC-enriched organoids [2]; [10],0.384
same,SSMD.CTG,ISC-enriched organoids [2]; [11],−0.003
same,SSMD.CTG,ISC-enriched organoids [2]; [12],−0.134
same,Dose.FC.LYZ.S,ISC-enriched organoids [3]; Dose 0.08 uM,0.067 log 2 fold change
same,Dose.FC.LYZ.S,ISC-enriched organoids [3]; Dose 0.40 uM,0.049 log 2 fold change
same,Dose.FC.LYZ.S,ISC-enriched organoids [3]; Dose 2.00 uM,0.000 log 2 fold change
same,Dose.FC.LYZ.S,ISC-enriched organoids [3]; Dose 10.00 uM,−0.045 log 2 fold change
same,Z.LYZ.S,ISC-enriched organoids [3]; [9],0.434
same,Z.LYZ.S,ISC-enriched organoids [3]; [10],0.316
same,Z.LYZ.S,ISC-enriched organoids [3]; [11],0.003
same,Z.LYZ.S,ISC-enriched organoids [3]; [12],−0.289
same,SSMD.LYZ.S,ISC-enriched organoids [3]; [9],0.329
same,SSMD.LYZ.S,ISC-enriched organoids [3]; [10],0.225
same,SSMD.LYZ.S,ISC-enriched organoids [3]; [11],0.002
same,SSMD.LYZ.S,ISC-enriched organoids [3]; [12],−0.176
"CNC(=O)[C@H](Cc1c[nH]c2ccccc12)NC(=O)[C@@H](CC(=O)NO)CC(C)C [Ilomastat (GM6001, Galardin)]",Dose.FC.LYZ.NS,ISC-enriched organoids [1]; Dose 0.08 uM,0.055 log 2 fold change
same,Z.LYZ.NS,"ISC-enriched organoids [1]; Dose 0.08 uM, standard z score",0.482
same,Dose.FC.LYZ.NS,ISC-enriched organoids [1]; Dose 0.40 uM,−0.011 log 2 fold change
same,Z.LYZ.NS,"ISC-enriched organoids [1]; Dose 0.40 uM, standard z score",−0.092
same,Dose.FC.LYZ.NS,ISC-enriched organoids [1]; Dose 2.00 uM,0.007 log 2 fold change
same,Z.LYZ.NS,"ISC-enriched organoids [1]; Dose 2.00 uM, standard z score",0.064
same,Dose.FC.LYZ.NS,ISC-enriched organoids [1]; Dose 10.00 uM,−0.106 log 2 fold change
same,Z.LYZ.NS,ISC-enriched organoids [1]; [8],−0.919
same,SSMD.LYZ.NS,ISC-enriched organoids [1]; [9],0.305
same,SSMD.LYZ.NS,ISC-enriched organoids [1]; [10],−0.056
same,SSMD.LYZ.NS,ISC-enriched organoids [1]; [11],0.066
same,SSMD.LYZ.NS,ISC-enriched organoids [1]; [12],−0.635
same,Dose.FC.CTG,ISC-enriched organoids [2]; Dose 0.08 uM,0.197 log 2 fold change
same,Z.CTG,"ISC-enriched organoids [2]; Dose 0.08 uM, standard z score",0.470
same,Dose.FC.CTG,ISC-enriched organoids [2]; Dose 0.40 uM,0.163 log 2 fold change
same,Z.CTG,"ISC-enriched organoids [2]; Dose 0.40 uM, standard z score",0.389
same,Dose.FC.CTG,ISC-enriched organoids [2]; Dose 2.00 uM,0.091 log 2 fold change
same,Z.CTG,"ISC-enriched organoids [2]; Dose 2.00 uM, standard z score",0.216
same,Dose.FC.CTG,ISC-enriched organoids [2]; Dose 10.00 uM,−0.110 log 2 fold change
same,Z.CTG,ISC-enriched organoids [2]; [8],−0.264
same,SSMD.CTG,ISC-enriched organoids [2]; [9],0.482
same,SSMD.CTG,ISC-enriched organoids [2]; [10],0.406
same,SSMD.CTG,ISC-enriched organoids [2]; [11],0.321
same,SSMD.CTG,ISC-enriched organoids [2]; [12],−0.348
same,Dose.FC.LYZ.S,ISC-enriched organoids [3]; Dose 0.08 uM,0.214 log 2 fold change
same,Dose.FC.LYZ.S,ISC-enriched organoids [3]; Dose 0.40 uM,0.117 log 2 fold change
same,Dose.FC.LYZ.S,ISC-enriched organoids [3]; Dose 2.00 uM,0.024 log 2 fold change
same,Dose.FC.LYZ.S,ISC-enriched organoids [3]; Dose 10.00 uM,−0.078 log 2 fold change
same,Z.LYZ.S,ISC-enriched organoids [3]; [9],1.385
same,Z.LYZ.S,ISC-enriched organoids [3]; [10],0.754
same,Z.LYZ.S,ISC-enriched organoids [3]; [11],0.153
same,Z.LYZ.S,ISC-enriched organoids [3]; [12],−0.502
same,SSMD.LYZ.S,ISC-enriched organoids [3]; [9],1.175
same,SSMD.LYZ.S,ISC-enriched organoids [3]; [10],0.580
same,SSMD.LYZ.S,ISC-enriched organoids [3]; [11],0.164
same,SSMD.LYZ.S,ISC-enriched organoids [3]; [12],−0.329
